In PMC2914800 (Biochemistry, 2010):

What was measured:
HasAp [1] = target: T1, HasAp (Pseudomonas aeruginosa, UniProt G3XD33, H32A); test: stopped-flow UV-vis kinetics at […] °C; type: binding
T1 sequence (G3XD33 1-184 H32A): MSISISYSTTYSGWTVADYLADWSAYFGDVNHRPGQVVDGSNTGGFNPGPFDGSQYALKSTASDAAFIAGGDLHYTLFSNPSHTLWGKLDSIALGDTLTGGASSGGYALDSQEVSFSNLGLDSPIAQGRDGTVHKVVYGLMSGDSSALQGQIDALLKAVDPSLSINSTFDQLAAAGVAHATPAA

HasAp [2] = target: HasAp (Pseudomonas aeruginosa, UniProt G3XD33); test: stopped-flow UV-vis kinetics at […] °C; type: binding

**Q.** Which Kd (HasAp [1]) does the source give for `C=CC1=C(C)C2=Cc3c(C=C)c(C)c4[n]3[Fe]([Cl])[n]3c(c(C)c(CCC(=O)O)c3=CC3=NC(=C4)C(C)=C3CCC(=O)O)=CC1=N2` [hemin] here?
**A.** 61 µM

**Q.** And the Kd (HasAp [2])?
**A.** 35 µM
